Measured values published in patent US20040048195A1, “Heat-sensitive lithographic printing plate precursor” (AGFA-GEVAERT, priority 2002, published 2004).
Read-outs that look alike come from different tables or passages of the source.

Columns and labels:
Assay type in all cases: physicochemical
[1] = Solubility of the IR-dyes (supersaturated solution, filtration, spectrophotometric determination); conditions: water/NaOH, pH 11.7, aqueous buffer, thermodynamic from solid, insoluble at pH = 9; NaOH was added until pH = 11.7; read-out: Solubility in H2O/NaOH
[2] = as above; conditions: for solubility: thermodynamic from solid
Protocol: The solubility of the IR-dyes IR-1 to −5 and of a comparison dye Cl (commercially available from FEW Chemicals GmbH) was determined as follows:
the extinction coefficient of the dyes was measured in methanol with a HP8453 UV/VIS/NIR spectrophotometer;
a supersaturated solution of the dyes in a) 2-methoxyl-propanol (MOP) and b) water/NaOH (pH=9) was prepared; after filtration the concentration of dissolved dye was determined by dissolution with methanol using the previous determined extinction coefficient. [drawing 8]

[3] = Test of inhibiting capability of the dyes: dissolution time of unexposed novolac/dye coating in Agfa EP26 developer; conditions: dye 35 mg/m^2 in 0.9 g/m^2 novolac, Agfa EP26 developer at 20° C., reference without dye 30 sec
Protocol: A layer of novolac (Alnovol SPN452 from Clariant, a 40.5 wt. % solution in methoxypropanol) and the dyes specified in Table 2 were coated on the above support. After drying during 1 min at 130° C., the samples contained 0.9 g/m^2 of novolac. A series of unexposed samples is immersed in Agfa EP26 developer at 20° C., each sample during a different time period. After the immersion period, the sample was removed from the developer, immediately rinsed with water, dried and then the dissolution of the coating in the developer was measured by comparing the weight of the sample before and after the development. As soon as the coating is dissolved completely, no more weight loss is measured upon longer immersion time periods, i.e. a curve representing weight loss as a function of immersion time reaches a plateau from the moment of complete dissolution of the layer, which is referred to herein as “dissolution time”. When the dissolution time of the sample containing the IR dye is longer than the dissolution time of the sample without the IR dye, then the IR dye clearly acts as an inhibitor.

For `CN1/C(=C/C=C2\CCCC(/C=C/C3=[N+](C)c4ccc5ccccc5c4C3(C)C)=C2Cl)C(C)(C)c2c1ccc1ccccc21` [Comparison, reference compound], the solubility [1] was < 0.002 mg/mL, the solubility ([2]; 2-methoxyl-propanol (MOP), organic solvent or mixture, 2-methoxyl-propanol (MOP), read-out: Solubility in MOP) was 50.1 mg/mL and the Dissolution time [3] was 60 s.

In the case of `CC1(C)C(/C=C/C2=C(Sc3ccccc3C(=O)O)C(=C/C=C3/N(CCCCS(=O)(=O)[O-])c4ccccc4C3(C)C)/CCC2)=[N+](CCCCS(=O)(=O)[O-])c2ccccc21.[K+]` [IR-dye 1], the “Solubility in MOP” value ([2]; 2-methoxyl-propanol (MOP)) is reported as 3.8 mg/mL, the “Solubility in H2O/NaOH at pH = 9” value ([2]; water/NaOH, pH = 9) is reported as 40.1 g/l and the Dissolution time ([3]; listed as IR-1) is reported as 30 s.

In the case of `CC1(C)C(/C=C/C2=C(Sc3ccccc3C(=O)O)C(=C/C=C3/N(CCCCS(=O)(=O)[O-])c4ccccc4C3(C)C)/CCC2)=[N+](CCCCS(=O)(=O)[O-])c2ccccc21.[K+]` [IR-dye 2], the “Solubility in MOP” value ([2]; 2-methoxyl-propanol (MOP)) is reported as 0.42 mg/mL, the “Solubility in H2O/NaOH at pH = 9” value ([2]; water/NaOH, pH = 9) is reported as >50 g/l and the Dissolution time ([3]; listed as IR-2) is reported as 20 s.

With `CC1(C)C(/C=C/C2=C(Sc3ccccc3C(=O)O)C(=C/C=C3/N(CCCCS(=O)(=O)[O-])c4ccccc4C3(C)C)/CCC2)=[N+](CCCCS(=O)(=O)[O-])c2ccccc21.[K+]` [IR-dye 3] the “Solubility in MOP” value ([2]; 2-methoxyl-propanol (MOP)) was >100 mg/mL, the “Solubility in H2O/NaOH at pH = 9” value ([2]; water/NaOH, pH = 9) was >50 g/l and the Dissolution time ([3]; listed as IR-3) was 30 s.

With `CC1(C)C(/C=C/C2=C(Sc3ccccc3C(=O)O)C(=C/C=C3/N(CCCCS(=O)(=O)[O-])c4ccccc4C3(C)C)/CCC2)=[N+](CCCCS(=O)(=O)[O-])c2ccccc21.[K+]` [IR-dye 4] the “Solubility in MOP” value ([2]; 2-methoxyl-propanol (MOP)) was 5.7 mg/mL, the “Solubility in H2O/NaOH at pH = 9” value ([2]; water/NaOH, pH = 9) was >50 g/l and the Dissolution time ([3]; listed as IR-4) was 20 s.

In the case of `CC1(C)C(/C=C/C2=C(Sc3ccccc3C(=O)O)C(=C/C=C3/N(CCCCS(=O)(=O)[O-])c4ccccc4C3(C)C)/CCC2)=[N+](CCCCS(=O)(=O)[O-])c2ccccc21.[K+]` [IR-dye 5], the solubility ([2]; 2-methoxyl-propanol (MOP) with tri-ethylamine, organic solvent or mixture, 2-methoxyl-propanol (MOP), tri-ethylamine was added to dissolve the dye, read-out: Solubility in MOP) is reported as 91.3 mg/mL, the solubility ([2]; water/NaOH, pH 9, aqueous buffer, water/NaOH, pH = 9, read-out: Solubility in H2O/NaOH at pH = 9) is reported as > 50 mg/mL and the Dissolution time ([3]; listed as IR-5) is reported as 25 s.
